# Experimental data from ChEMBL document CHEMBL4196242, “Irpeksins A-E, 1,10- seco-Eburicane-Type Triterpenoids from the Medicinal Fungus Irpex lacteus and Their Anti-NO Activity” (J Nat Prod, 2018).
# Test system: RAW264.7
# Assay: Inhibition of LPS-induced nitric oxide production in mouse RAW264.7 cells after 18 hrs by Griess assay
# Assay type: functional, cell-based
# Settings: RAW264.7, 18 h
row,IC50,SMILES
1,2.2 µM,CC1=C(C)[C@@]2(C[C@@H](C)[C@H]3[C@H](C[C@@]4(C)c5ccc(C(C)(C)/C=C/CO)c(C)c5C(=O)C[C@]34C)O2)OC1=O
2,12.8 µM,CC1=C(C)[C@@]2(C[C@@H](C)[C@H]3[C@H](C[C@@]4(C)c5ccc(C(C)(C)CCCO)c(C)c5C(=O)C[C@]34C)O2)OC1=O
3,19.6 µM,CC1=C(C)[C@@]2(C[C@@H](C)[C@H]3[C@H](C[C@@]4(C)c5ccc(C(C)(C)/C=C/CO)c(C)c5O[C@H](O)C[C@]34C)O2)OC1=O
4,17.9 µM,CC1=C(C)[C@@]2(C[C@@H](C)[C@H]3[C@H](C[C@@]4(C)c5ccc(C(C)(C)/C=C/C(=O)O)c(C)c5C(=O)C[C@]34C)O2)OC1=O
5,4.5 µM,CC1=C(C)[C@@]2(C[C@@H](C)[C@H]3[C@H](C[C@@]4(C)c5ccc(C(C)(C)/C=C/C(=O)O)c(C)c5[C@H](O)C[C@]34C)O2)OC1=O
6,32.9 µM,CNC(=N)NCCC[C@H](N)C(=O)O [TILARGININE]
